Source: the supplement of paper PMC10307832

Experiments:
Test in all cases: relative viability (nuclei count vs DMSO), 5 days (fraction); higher = more cells survive
[1] = compound: NS(=O)(=O)OC[C@@H]1C[C@@H](n2ccc3c(N[C@H]4CCc5ccccc54)ncnc32)C[C@@H]1O [MLN4924] + CS(=O)(=O)CCNCc1ccc(-c2ccc3ncnc(Nc4ccc(OCc5cccc(F)c5)c(Cl)c4)c3c2)o1 [Lapatinib] (partner 2 µM)
How it was run: (§1)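 Relative viability is defined as nuclei in treated wells over nuclei in vehicle wells. Duplicate plates were run and medians reported. Lung cancer cell lines in 1536-well plates were dosed by pin tool one day after seeding, with one drug or with a fixed anchor-drug dose plus five library-drug doses (not always all listed) in √10 steps, and nuclei were counted after 5 days.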

[2] = compound: CC[C@H](C)N1C=C(C2=C(C=C(C=C21)C3=CN=C(C=C3)N4CCNCC4)C(=O)NCC5=C(C=C(NC5=O)C)C)C [GSK126] + CC1(C)CCC(c2ccc(Cl)cc2)=C(CN2CCN(c3ccc(C(=O)NS(=O)(=O)c4ccc(N[C@H](CCN5CCOCC5)CSc5ccccc5)c(S(=O)(=O)C(F)(F)F)c4)cc3)CC2)C1 [Navitoclax] (partner 0.5 µM)
How it was run: as §1

[3] = compound: C1CC(C1)(C(=O)O)C(=O)O.[NH2-].[NH2-].[Pt+2] [Carboplatin] + COc1cc2c(Oc3ccc(NC(=O)C4(C(=O)Nc5ccc(F)cc5)CC4)cc3F)ccnc2cc1OCCCN1CCOCC1 [Foretinib] (partner 0.25 µM)
How it was run: as §1

[4] = compound: CC[C@H](C)N1C=C(C2=C(C=C(C=C21)C3=CN=C(C=C3)N4CCNCC4)C(=O)NCC5=C(C=C(NC5=O)C)C)C [GSK126] + COc1cc2c(Oc3ccc(NC(=O)C4(C(=O)Nc5ccc(F)cc5)CC4)cc3F)ccnc2cc1OCCCN1CCOCC1 [Foretinib] (partner 0.25 µM)
How it was run: as §1

UMC-11
relative viability ([1]; first compound 0.04 µM): 0.39
relative viability ([1]; first compound 0.1265 µM): 0.383
relative viability ([1]; first compound 0.4 µM): 0.271
relative viability ([1]; first compound 1.265 µM): 0.122
relative viability ([1]; first compound 4 µM): 0.143
relative viability ([2]; first compound 0.08 µM): 0.323
relative viability ([2]; first compound 0.253 µM): 0.314
relative viability ([2]; first compound 0.8 µM): 0.316
relative viability ([2]; first compound 2.53 µM): 0.264
relative viability ([2]; first compound 8 µM): 0.279
relative viability ([3]; first compound 0.08 µM): 1.03
relative viability ([3]; first compound 0.253 µM): 1.03
relative viability ([3]; first compound 0.8 µM): 1.06
relative viability ([3]; first compound 2.53 µM): 0.941
relative viability ([3]; first compound 8 µM): 0.718
relative viability ([4]; first compound 0.08 µM): 1.04
relative viability ([4]; first compound 0.253 µM): 1.04
relative viability ([4]; first compound 0.8 µM): 1.02
relative viability ([4]; first compound 2.53 µM): 1.03
relative viability ([4]; first compound 8 µM): 1.19
